Laboratory results taken from patent US10280179B2, “Spiroquinoxaline derivatives as inhibitors of non-apoptotic regulated cell-death” (Helmholtz Zentrum Munchen—Deutches Forschungszentrum Fur …, priority 2013, dated 2019).
Like-named read-outs stand apart in the source and are kept apart here.

Tests used:
[1] = Cellular toxicity, same assay as Example B.4 without TAM (Example B.5); type: cell-based; conditions: mouse; Pfa1 cells without TAM; read-out: TC50 (the source's name)
Text: Cellular Toxicity of Compounds of the Invention
An estimate of the toxicity for compounds of the invention was obtained by using the same assay as described in Example B.4, but without the addition of TAM. […] Such TC50 values obtained for certain compounds disclosed herein, together with an approximate therapeutic window (estimated by dividing each TC50 by the corresponding IC50 determined from example B.4) are shown in Table 3.

[2] = system: human neuroblastoma cell line SH-SY5Y; assay: Inhibition of BSO-induced non-apoptotic cell death (Example B.1); type: cell-based; conditions: SH-SY5Y cells, 72 hours
Outline: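 SH-SY5Y cells exposed to 50 μM BSO together with compound (0.5 pM–100 μM, triplicate) for 72 h at 37°C, 5% CO2. Survival measured by AquaBluer fluorescence (ex 530–560/em 590 nm), normalised to percent surviving cells, and IC50 derived.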

[3] = system: Pfa1 cells; assay: Inhibition of non-apoptotic cell death after tamoxifen-induced GPx4 knockout in a recombinant cell line (Example B.4); type: cell-based; conditions: Mus musculus, read-out: Pfa1/TAM IC50
Outline: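 Immortalised murine fibroblasts with tamoxifen-inducible CreERT2 for ablation of both GPx4 copies (Pfa1 cells) received tamoxifen on day 0 together with test compound. Cell survival was measured by AlamarBlue after 72 hours.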

[4] = system: C57BL/6 mice; assay: Traumatic brain injury (controlled cortical impact) animal model (Example C.5); type: in vivo, mouse; conditions: TBI (CCI), 24 h after CCI, compared to vehicle control, FIG. 4
Procedure: FIG. 4: Efficiency of a compound of the invention in an animal model of traumatic brain injury.
Briefly, to test such utility of compounds disclosed herein, male C57BL/6 mice are anesthetised prior to the induction of trauma. Core body temperature is maintained at 37° C. using a feedback-controlled heating pad connected to a rectal probe. To induce trauma, a craniotomy is prepared over the right parietal cortex. Controlled cortical impact (CCI) is delivered perpendicular to the surface of the brain with a custom-made CCI applicator for mice using the following parameters: 8 m/s velocity, 3 mm diameter, 1 mm brain displacement and 150 ms duration. Following CCI, the skull is closed by affixing the removed bone flap using veterinary-grade tissue glue (Vetbond, 3M, St. Paul, Minn.). Compounds are administered at 1 mg/Kg or 10 mg/Kg (dissolved in 40% PEG) 15 minutes after TBI induction and 40% PEG is included as vehicle control. The animals are recovered from anesthesia in an incubator heated to 33° C. Animals are sacrificed and the brain is removed 24 h after CCI and immediately frozen on crushed dry ice and stored at −80° C. […] The sections are stained with cresyl violet for quantifying the area of contused brain, and contusion volume is calculated and the effect of the compounds tested observed following analysis of such data.

[5] = system: mouse hippocampal cell line (Ht22); assay: Inhibition of glutamate-induced non-apoptotic cell death (Example B.2); type: cell-based; conditions: HT-22, Ht22 cells
Outline: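 Ht22 cells (2,000/well, DMEM/10% FBS) seeded together with 5 mM glutamate and compound (0.5 pM to 100 μM, triplicate), incubated 72 h at 37 °C/5% CO2. Cell survival then quantified; glutamate alone as negative control, alpha-tocopherol as positive control.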

Clc1cccc(CNC2=Nc3ccccc3NC23CCNCC3)c1 [N-2]
CC50 [1]: 5 to 10 µM | IC50 ([2]; 50 μM BSO, read-out: SH-SY5Y/BSO IC50): < 20 nM | IC50 ([2]; BSO 50 μM, cell survival (AquaBluer), read-out: SH-SY5Y/BSO (Example B.1) IC50): 2.81 nM | IC50 [3]: < 20 nM | contusion volume in the brains of mice following traumatic brain injury [4]: trend of a (non-significant) positive effect | IC50 ([5]; glutamate 5 mM, 72 hours, cell survival, read-out: Ht22/GLU (Example B.2) IC50): ~10 nM | IC50 ([5]; glutamate-induced cell death, read-out: Ht22/GLU): < 200 nM
